Results reported in publication PMC11859074, “Exploring the Anticancer Potential of NO-Donor Oxadiazole Assemblies Against Malignant Pleural Mesothelioma” (Pharmaceutics, 2025).
“And” between values parts separate entries of the source, which are not always exact repeats. Equal entries are not always repeated. Where two headings read alike, the source gives them in different places.

Assays:
[1] = NO release assay (Griess assay, phosphate buffer with L-cysteine); details: for NO Released (%) 1 h / NO Released (%) 24 h / NO Released (%) 48 h: % NO2− (μmol/μmol) relative to initial concentration (100 μM), L-cysteine; for NO Released (%) 1 h: phosphate buffer pH 7.4, 37 °C; for NO Released (%) 24 h: phosphate buffer pH 7.4, 24 h; for NO Released (%) 48 h: phosphate buffer pH 7.4, 48 h; for Fold Change 24 h/1 h: ratio of NO released at 24 h to 1 h; for Fold Change 48 h/1 h: ratio of NO released at 48 h to 1 h; for Fold Change 48 h/24 h: ratio of NO released at 48 h to 24 h; for NO-donor capacity: Griess assay, time point not stated
[2] = test system: AB1 (mouse malignant mesothelioma cell line); design: method as in doi:10.1039/D4NJ02047B; details: MTT assay, 72 h exposure; ref [33]; cited from earlier work
[3] = test system: MRC-5 (human embryonic lung fibroblast cell line); design: method as in doi:10.1039/D4NJ02047B; details: MTT assay, 72 h exposure; ref [33]; cited from earlier work
[4] = test system: JU77 (human mesothelioma cell line); design: method as in doi:10.1039/D4NJ02047B; details: ref [33], cited from earlier work
[5] = test system: AB1 (mouse malignant mesothelioma cell line); assay: MTT cytotoxicity assay, AB1 cells; type: cell-based; details: 72 h exposure
Experimental: (§1) AB1 (mouse malignant mesothelioma cell line) and JU77 (human mesothelioma cell line) were obtained from Cell Bank Australia; MRC-5 (human embryonic lung fibroblast cell line) was obtained from ATCC. […] Cells were grown in tissue culture flasks (75 cm^2 and 25 cm^2, SPL Life Sciences, Pocheon, South Korea). […] The cytotoxicity of compounds was determined using the MTT colorimetric test. Cells were harvested from culture flasks by trypsinization and seeded into Cellstar 96-well microculture plates at a seeding density of 6000 cells per well (6 × 10^4 cells per mL). After the cells were allowed to resume exponential growth for 24 h, they were exposed to drugs at different concentrations in media for 72 h. The tested compounds were diluted in the complete medium at the desired concentrations added to each well (100 μL) and serially diluted to other wells. After 72 h of exposure, the medium was replaced with MTT (5 mg mL^−1, 100 μL per well) and incubated for an additional 50 min. Subsequently, the medium was aspirated, and the purple formazan crystals formed in viable cells were dissolved in DMSO (100 μL per well). […] The evaluation was based on means from at least three independent experiments, each comprising three replicates per concentration level.

[6] = test system: JU77 (human mesothelioma cell line); assay: cells; type: cell-based; details: for IC50: Homo sapiens, MTT assay, 72 h exposure; for SFJU77 (selectivity factor): IC50(MRC-5)/IC50(JU77); for times higher cytotoxicity in human MPM cells compared to human lung fibroblasts: 72 h
Experimental: as §1

[7] = test system: MRC-5 (human embryonic lung fibroblast cell line); assay: MTT cytotoxicity assay, MRC-5 cells; type: cell-based; details: MRC5, 72 h exposure
Experimental: as §1

[8] = test system: AB1 and JU77 mesothelioma cell lines; assay: cells; type: cell-based, mouse and human; details: for IC50: MPM, range over AB1 and JU77, 72 h MTT, read-out: IC50 values in both cell lines
Experimental: as §1

Compound | IC50 [6] | IC50 [8] | NO Released (%) 1 h [1] | NO Released (%) 24 h [1] | NO Released (%) 48 h [1] | Fold Change 24 h/1 h [1] | Fold Change 48 h/1 h [1] | Fold Change 48 h/24 h [1] | IC50 [2] | IC50 [3] | SFJU77 (selectivity factor) ([4]; IC50(MRC-5)/IC50(JU77)) | IC50 ([4]; MTT assay, 72 h exposure) | IC50 [5] | SFJU77 (selectivity factor) [6] | IC50 [7] | NO-donor capacity [1] | times higher cytotoxicity in human MPM cells compared to human lung fibroblasts [6] | selectivity for cancer cells (in words) ([6]; MPM cells vs MRC-5 human lung fibroblasts) | cytotoxicity (in words) [8]
NC(=O)c1c(CO)no[n+]1[O-] [CAS-1609, 3-carbamoyl-4-(hydroxymethyl)furoxan, reference compound] |  |  | 27% and 27 ± 3% | 68 ± 6% | 73 ± 6% | 2.5 | 2.7 | 1.1 |  |  |  |  |  |  |  |  |  |  | 
CCOc1no[n+]([O-])c1S(=O)(=O)c1ccccc1 [CHF-2363, 4-ethoxy-3-phenylsulphonylfuroxan, reference compound] |  |  | 26 ± 10% | 71 ± 4% | 77 ± 9% | 2.7 | 3.0 | 1.1 |  |  |  |  |  |  |  |  |  |  | 
N.N.[Cl][Pt][Cl] [Cisplatin, cisplatin] |  |  |  |  |  |  |  |  | 5.8 ± 1 µM | 3.1 ± 1.2 µM | 0.7 | 4.2 ± 0.5 µM |  |  |  |  |  |  | 
N#Cc1c(-c2noc(-c3ccccc3)n2)no[n+]1[O-] [Compound 2a, 3-Cyano-4-(5-phenyl-1,2,4-oxadiazolyl)furoxan] | 3.7 ± 1 µM |  | 50 ± 8% | 59 ± 5% | 89 ± 6% | 1.2 | 1.8 | 1.5 |  |  |  |  | 3.4 ± 0.2 µM | 1.0 | 3.7 µM |  |  |  | 
N#Cc1c(-c2noc(-c3ccc([N+](=O)[O-])cc3)n2)no[n+]1[O-] [Compound 2b, 3-Cyano-4-(5-(4-nitrophenyl)-1,2,4-oxadiazolyl)furoxan] | 2.7 ± 0.2 µM |  | 51 ± 11% | 74 ± 1% | 80 ± 4% | 1.5 | 1.6 | 1.1 |  |  |  |  | 4.1 ± 0.9 µM | 1.6 | 4.4 ± 0.6 µM |  |  |  | 
N#Cc1c(-c2noc(-c3ccncc3)n2)no[n+]1[O-] [Compound 2e, 3-Cyano-4-(5-(pyridin-4-yl)-1,2,4-oxadiazolyl)furoxan] | 4.2 ± 0.8 µM |  | 53 ± 7% | 87 ± 13% | 87 ± 11% | 1.6 | 1.6 | 1.0 |  |  |  |  | 7.9 ± 2 µM | 1.1 | 4.7 ± 0.3 µM |  |  | low selectivity for cancer cells | 
COCc1nc(-c2no[n+]([O-])c2C#N)no1 [Compound 2f, 3-Cyano-4-(5-(methoxymethyl)-1,2,4-oxadiazolyl)furoxan] | > 150 µM |  | 50 ± 7% | 66 ± 11% | 71 ± 11% | 1.3 | 1.4 | 1.1 |  |  |  |  | > 150 µM |  | > 150 µM |  |  |  | no cytotoxic effects
Cc1ccc(-c2nc(-c3no[n+]([O-])c3C#N)no2)cc1 [Compound 2g, 3-Cyano-4-(5-(p-tolyl)-1,2,4-oxadiazolyl)furoxan] | 3.1 ± 0.2 µM |  | 59 ± 1% | 74 ± 6% | 81 ± 10% | 1.3 | 1.4 | 1.1 |  |  |  |  | 4.9 ± 1.4 µM | 1.5 | 4.8 ± 0.3 µM |  |  |  | 
COc1ccc(-c2nc(-c3no[n+]([O-])c3C#N)no2)cc1 [Compound 2h, 3-Cyano-4-(5-(4-methoxyphenyl)-1,2,4-oxadiazolyl)furoxan] | 2.9 ± 0.3 µM |  | 54 ± 6% | 79 ± 5% | 86 ± 4% | 1.5 | 1.6 | 1.1 |  |  |  |  | 4.1 ± 0.7 µM | 1.4 | 4.2 ± 0.7 µM |  |  |  | 
N#Cc1c(-c2ncon2)no[n+]1[O-] [Compound 2l, 3-Cyano-4-(1,2,4-oxadiazolyl)furoxan] | 5.4 ± 1.3 µM | 5.4 to 7 µM | 42 ± 5% | 68 ± 8% | 72 ± 8% | 1.6 | 1.7 | 1.1 |  |  |  |  | 7 ± 1.3 µM | 0.9 | 4.6 ± 1 µM |  |  |  | 

Continued, in another order:

IC50 [6] | IC50 [8] | Compound | NO Released (%) 1 h [1] | NO Released (%) 24 h [1] | NO Released (%) 48 h [1] | Fold Change 24 h/1 h [1] | Fold Change 48 h/1 h [1] | Fold Change 48 h/24 h [1] | IC50 [2] | IC50 [3] | SFJU77 (selectivity factor) ([4]; IC50(MRC-5)/IC50(JU77)) | IC50 ([4]; MTT assay, 72 h exposure) | IC50 [5] | SFJU77 (selectivity factor) [6] | IC50 [7] | NO-donor capacity [1] | times higher cytotoxicity in human MPM cells compared to human lung fibroblasts [6] | selectivity for cancer cells (in words) ([6]; MPM cells vs MRC-5 human lung fibroblasts) | cytotoxicity (in words) [8]
1.2 ± 0.2 µM |  | N#Cc1c(-c2noc(-c3cccc([N+](=O)[O-])c3)n2)no[n+]1[O-] [Compound 2c, 3-Cyano-4-(5-(3-nitrophenyl)-1,2,4-oxadiazolyl)furoxan] | 61 ± 8% | 107 ± 8% | 107 ± 10% | 1.8 | 1.8 | 1.0 |  |  |  |  | 2.8 ± 0.5 µM | 3.6 | 4.3 ± 0.3 µM | > 100% | 2.4-3.6 times |  | 
0.87 ± 0.07 µM | 0.87 to 1.8 µM | N#Cc1c(-c2noc(-c3ccccc3[N+](=O)[O-])n2)no[n+]1[O-] [Compound 2d, 3-Cyano-4-(5-(2-nitrophenyl)-1,2,4-oxadiazolyl)furoxan] | 69 ± 1% | 86 ± 3% | 89 ± 3% | 1.2 | 1.3 | 1.0 |  |  |  |  | 1.8 ± 0.2 µM | 2.5 | 2.2 ± 0.2 µM |  | 2.4-3.6 times |  | 
1.6 ± 0.4 µM |  | COc1ccc(-c2nc(-c3no[n+]([O-])c3C#N)no2)cc1OC [Compound 2i, 3-Cyano-4-(5-(3,4-dimethoxyphenyl)-1,2,4-oxadiazolyl)furoxan] | 54 ± 14% | 82 ± 14% | 94 ±14% | 1.5 | 1.7 | 1.1 |  |  |  |  | 3.3 ± 0.7 µM | 2.5 | 4 ± 0.6 µM |  | 2.4-3.6 times |  | 
1.4 ± 0.2 µM |  | N#Cc1c(-c2noc(-c3ccccc3Cl)n2)no[n+]1[O-] [Compound 2j, 4-(5-(2-Chlorophenyl)-1,2,4-oxadiazolyl)-3-cyanofuroxan] | 53 ± 4% | 80 ± 3% | 84 ± 2% | 1.5 | 1.6 | 1.1 |  |  |  |  | 2.1 ± 0.3 µM | 2.4 | 3.3 ± 0.3 µM |  | 2.4-3.6 times |  | 
0.99 ± 0.13 µM | 0.87 to 1.8 µM | N#Cc1c(-c2noc(-c3ccco3)n2)no[n+]1[O-] [Compound 2k, 3-Cyano-4-(5-(2-furyl)-1,2,4-oxadiazolyl)furoxan] | 73 ± 7% | 97 ± 6% | 104 ± 12% | 1.3 | 1.4 | 1.1 |  |  |  |  | 1.4 ± 0.4 µM | 1.5 | 1.5 ± 0.3 µM | > 100% |  |  | 
